Like-named read-outs stand apart in the source and are kept apart here.
Experiments:
[1] = feed intake of horses on sudden or gradual introduction of virginiamycin (Founderguard); assay type: in vivo
Procedure: The aim of the experiment was to determine if there is a depression in feed intake when horses are first given Founderguard at the recommended dose rate of 0.5 mg virginiamycin per kg body weight per day, and whether a gradual or sudden introduction of Founderguard has different effects on feed intake during the introductory period.
Five horses of mixed ages and sexes were used in the experiment. All horses were treated against intestinal parasites prior to the Control period.
Open air feeding stalls approximately 2.5 m square were prepared with ground-level hay feeders, car tyre bucket-holders for feeding grain and a water trough shared between two stalls. Horses entered the stalls around 7.00 AM each day and were let out for exercise around 5.00 PM. […]
All the oats offered were consumed. Intake of all feed was measured on an ‘as-fed’ basis. […] While not measured objectively the quality of hay used in Period 2 was considered to be of higher quality than that used in Period 1. The effect of treatment on feed intake for each horse was calculated each day as a percentage of the mean intake for that animal during the five days of ‘Control’ intake measurement. […]
Feed intake was measured for at least 5 days without Founderguard (control intake) before commencing the five day treatment period. […]

[2] = feed intake on introduction of virginiamycin into the diet (general statements); assay type: in vivo, sheep, cattle and horses
[3] = tested on: lactic acid producing bacteria; assay: in vitro function assay: lactic acid and pH after incubation of faecal/colonic samples from horses fed virginiamycin pellets; assay type: in vivo
Description: Twelve horses were housed individually and fed 2.5 kg/d of a commercial horse concentrate each morning. Approximately 6 kg of medium quality lucerne hay was fed after animals had consumed the concentrate.
The experiment was run in three periods with 4 animals in the stables during each period. Each period lasted 12 days: five days to allow adaptation to the stables and the dietary regime, and then 7 days when medicated pellets containing different concentrations of virginiamycin were fed. Faecal samples were taken on the day before feeding medicated feed and then on days 2, 4 and 6 of feeding the medicated pellets.
The effectiveness of each dose rate and time on treatment was determined using an in vitro function assay to determine the amount of lactic acid produced during in vitro incubation of faecal material or samples taken from the distal colon. The fermentation of faecal material was carried out as follows. Fresh faecal material was obtained prior to the morning feed. Where warm material was available in the stable this was used, otherwise a rectal sample was obtained. A sub-sample of 150 g was mixed with an equal volume of distilled water and then strained through nylon gauze. Aliquots of supernatant were dispensed into 3 replicate tubes (4 ml/tube) and 1 ml of glucose solution (50 mg glucose/ml) was added before pricking the lid of the plastic vial with a 25 g needle and incubating for 20 to 24 hours at 37°. Following incubation the measurements of pH were made before centrifugation of a sub-sample prior to L-lactic acid analysis.
The results of the in vitro function assay are summarised in Tables 2 and 3 and represented graphically in FIG. 3. It is relevant to note that the level of glucose used in the in vitro incubations is effectively higher than any amount of carbohydrate which could be used in vivo. In the in vitro model, no volatile fatty acids are removed from the incubation flask through “absorption”.
The result of this is that the pH drops in vitro by more than it would in vivo and that a lactate-based fermentation develops more readily. It is therefore probably unrealistic to expect that lactate production can be completely controlled in this in vitro incubation model. Initially it was considered that the “baseline” in the in vitro model could be set around 10 mmol/L for an effective dose rate of virginiamycin. However, given the variable response around the 0.5 mg/kg dose rate in terms of lactic acid accumulation in the in vitro model it may be advisable to set a lower threshold for mean lactic acid concentration in determining the effective dose rate.

[4] = horses, very high concentrations (500 mg/kg complete feed); cited from earlier work
[5] = horse 1, 640 mg/d, 1.422 mg/kg, 2 days on medicated feed
[6] = horse 1, 640 mg/d, 1.422 mg/kg, 6 days on medicated feed
[7] = horse 2, 160 mg/d, 0.343 mg/kg, 2 days on medicated feed
[8] = horse 2, 160 mg/d, 0.343 mg/kg, 4 days on medicated feed
[9] = horse 3, 1280 mg/d, 2.639 mg/kg, 2 days on medicated feed
[10] = horse 3, 1280 mg/d, 2.639 mg/kg, 4 days on medicated feed
[11] = horse 3, 1280 mg/d, 2.639 mg/kg, 6 days on medicated feed
[12] = horse 4, 20 mg/d, 0.042 mg/kg, 2 days on medicated feed
[13] = horse 4, 20 mg/d, 0.042 mg/kg, 4 days on medicated feed
[14] = horse 4, 20 mg/d, 0.042 mg/kg, 6 days on medicated feed
[15] = horse 5, 160 mg/d, 0.359 mg/kg, 2 days on medicated feed
[16] = horse 5, 160 mg/d, 0.359 mg/kg, 4 days on medicated feed
[17] = horse 5, 160 mg/d, 0.359 mg/kg, 6 days on medicated feed
[18] = horse 6, 40 mg/d, 0.091 mg/kg, 2 days on medicated feed
[19] = horse 6, 40 mg/d, 0.091 mg/kg, 4 days on medicated feed
[20] = horse 7, 640 mg/d, 1.475 mg/kg, 2 days on medicated feed
[21] = horse 7, 640 mg/d, 1.475 mg/kg, 4 days on medicated feed
[22] = horse 7, 640 mg/d, 1.475 mg/kg, 6 days on medicated feed
[23] = horse 8, 80 mg/d, 0.154 mg/kg, 2 days on medicated feed
[24] = horse 8, 80 mg/d, 0.154 mg/kg, 6 days on medicated feed
[25] = horse 9, 80 mg/d, 0.180 mg/kg, 2 days on medicated feed
[26] = horse 9, 80 mg/d, 0.180 mg/kg, 4 days on medicated feed
[27] = horse 10, 320 mg/d, 0.702 mg/kg, 2 days on medicated feed
[28] = horse 10, 320 mg/d, 0.702 mg/kg, 4 days on medicated feed
[29] = horse 11, 160 mg/d, 0.432 mg/kg, 2 days on medicated feed
[30] = horse 11, 160 mg/d, 0.432 mg/kg, 6 days on medicated feed
[31] = horse 12, 320 mg/d, 0.693 mg/kg, 2 days on medicated feed
[32] = horse 12, 320 mg/d, 0.693 mg/kg, 6 days on medicated feed

Substance: virginiamycin
- effect on feed intake ([1]; gradual introduction over 4 days (25, 50, 75, 100% of complete dose)): does not cause a depression in feed intake
- feed intake compared to pretreatment levels (day 0) and to gradual introduction ([1]; sudden introduction of the full dose (0.5 mg/kg bodyweight per day)): significant decrease in feed intake
- feed intake compared to pre-medication levels ([2]; gradually increasing doses): no detectable decrease in feed intake
- feed intake, average, of the pretreatment level ([2]; sudden introduction of the full dose rate): around 80%
- reduction of feed intake ([2]; sudden introduction to sheep, cattle or horses at 0.5 mg per kg body weight and above, or 20 g/tonne and above): ≥ 20%
- control of lactic acid production ([3]; 0.4 to 0.7 mg per kg bodyweight per day, after three to four days): partial and variable levels of controlling lactic acid production
- control of lactic acid producing bacteria in faecal/colonic digesta ([3]; 1.4 and 2.6 mg/kg body weight, 48 hours after first treatment): good control of lactic acid producing bacteria
- capacity for lactic acid production ([3]; 1.4 and 2.6 mg/kg body weight, days 4 and 6 as well as day 2): remained low
- capacity for lactic acid production ([3]; average of 0.4 and 0.7 mg/kg bodyweight per day, days 2, 4 and 6, response more variable and less complete than higher dose rates): reduction in capacity for lactic acid production
- control of lactic acid production ([3]; dose rates over 1.4 mg per kg body weight, after two days of treatment): almost complete control
- L-lactate concentration following incubation of faecal samples, Mean [3, 5]: 0 mmol/L
- pH measured following incubation of faecal samples, Mean [3, 5]: 5.11
- L-lactate concentration following incubation of faecal samples, Mean [3, 6]: 4 mmol/L
- pH measured following incubation of faecal samples, Mean [3, 6]: 4.94
- L-lactate concentration following incubation of faecal samples, Mean [3, 7]: 17 mmol/L
- pH measured following incubation of faecal samples, Mean [3, 7]: 4.61
- L-lactate concentration following incubation of faecal samples, Mean [3, 8]: 21 mmol/L
- pH measured following incubation of faecal samples, Mean [3, 8]: 4.76
- L-lactate concentration following incubation of faecal samples, Mean ([3]; horse 2, 160 mg/d, 0.343 mg/kg, 6 days on medicated feed): 12 mmol/L
- L-lactate concentration following incubation of faecal samples, Mean [3, 9]: 0 mmol/L
- pH measured following incubation of faecal samples, Mean [3, 9]: 4.43
- L-lactate concentration following incubation of faecal samples, Mean [3, 10]: 0 mmol/L
- pH measured following incubation of faecal samples, Mean [3, 10]: 4.71
- L-lactate concentration following incubation of faecal samples, Mean [3, 11]: 1 mmol/L
- pH measured following incubation of faecal samples, Mean [3, 11]: 4.59
- L-lactate concentration following incubation of faecal samples, Mean [3, 12]: 47 mmol/L
- pH measured following incubation of faecal samples, Mean [3, 12]: 3.63
- L-lactate concentration following incubation of faecal samples, Mean [3, 13]: 47 mmol/L
- pH measured following incubation of faecal samples, Mean [3, 13]: 4.02
- L-lactate concentration following incubation of faecal samples, Mean [3, 14]: 31 mmol/L
- pH measured following incubation of faecal samples, Mean [3, 14]: 4.28
- L-lactate concentration following incubation of faecal samples, Mean [3, 15]: 0 mmol/L
- pH measured following incubation of faecal samples, Mean [3, 15]: 4.48
- L-lactate concentration following incubation of faecal samples, Mean [3, 16]: 0 mmol/L
- pH measured following incubation of faecal samples, Mean [3, 16]: 4.73
- L-lactate concentration following incubation of faecal samples, Mean [3, 17]: 0 mmol/L
- pH measured following incubation of faecal samples, Mean [3, 17]: 5.09
- L-lactate concentration following incubation of faecal samples, Mean [3, 18]: 23 mmol/L
- pH measured following incubation of faecal samples, Mean [3, 18]: 4.11
- L-lactate concentration following incubation of faecal samples, Mean [3, 19]: 25 mmol/L
- pH measured following incubation of faecal samples, Mean [3, 19]: 4.11
- L-lactate concentration following incubation of faecal samples, Mean ([3]; horse 6, 40 mg/d, 0.091 mg/kg, 6 days on medicated feed): 24 mmol/L
- L-lactate concentration following incubation of faecal samples, Mean [3, 20]: 1 mmol/L
- pH measured following incubation of faecal samples, Mean [3, 20]: 4.85
- L-lactate concentration following incubation of faecal samples, Mean [3, 21]: 1 mmol/L
- pH measured following incubation of faecal samples, Mean [3, 21]: 4.64
- L-lactate concentration following incubation of faecal samples, Mean [3, 22]: 1 mmol/L
- pH measured following incubation of faecal samples, Mean [3, 22]: 4.67
- L-lactate concentration following incubation of faecal samples, Mean [3, 23]: 5 mmol/L
- pH measured following incubation of faecal samples, Mean [3, 23]: 4.41
- L-lactate concentration following incubation of faecal samples, Mean [3, 24]: 44 mmol/L
- pH measured following incubation of faecal samples, Mean [3, 24]: 4.36
- L-lactate concentration following incubation of faecal samples, Mean [3, 25]: 4 mmol/L
- pH measured following incubation of faecal samples, Mean [3, 25]: 4.83
- L-lactate concentration following incubation of faecal samples, Mean [3, 26]: 37 mmol/L
- pH measured following incubation of faecal samples, Mean [3, 26]: 4.25
- L-lactate concentration following incubation of faecal samples, Mean ([3]; horse 9, 80 mg/d, 0.180 mg/kg, 6 days on medicated feed): 29 mmol/L
- L-lactate concentration following incubation of faecal samples, Mean [3, 27]: 1 mmol/L
- pH measured following incubation of faecal samples, Mean [3, 27]: 4.67
- L-lactate concentration following incubation of faecal samples, Mean [3, 28]: 1 mmol/L
- pH measured following incubation of faecal samples, Mean [3, 28]: 5.06
- L-lactate concentration following incubation of faecal samples, Mean ([3]; horse 10, 320 mg/d, 0.702 mg/kg, 6 days on medicated feed): 15 mmol/L
- L-lactate concentration following incubation of faecal samples, Mean [3, 29]: 4 mmol/L
- pH measured following incubation of faecal samples, Mean [3, 29]: 4.54
- L-lactate concentration following incubation of faecal samples, Mean [3, 30]: 19 mmol/L
- pH measured following incubation of faecal samples, Mean [3, 30]: 4.12
- L-lactate concentration following incubation of faecal samples, Mean [3, 31]: 36 mmol/L
- pH measured following incubation of faecal samples, Mean [3, 31]: 3.85
- L-lactate concentration following incubation of faecal samples, Mean [3, 32]: 3 mmol/L
- pH measured following incubation of faecal samples, Mean [3, 32]: 4.93
- prevention of over production of lactic acid ([3]; horses, low dose rates such as 0.1 mg per kg bodyweight per day): may not be effective in preventing over production of lactic acid
- effect on feed intake [4]: reduce feed intake

Source: US8173120B2, “Method of preventing reduced feed intake in animals and treatment of disease conditions” (Precision Nutrition Pty Ltd, priority 2005, dated 2012)
